Reference: EPA's ToxValDB 9.5
Several values for one entry are separate records, joined by “and”; a condition that tells them apart may be missing. Equal values may be shown once. One block for each compound: values may come before it.

Assays:
Mus musculus [1] = conditions: uterotrophic, Active
Rattus norvegicus [2] = conditions: uterotrophic, Active
Rattus norvegicus [3] = conditions: subchronic; oral; diet; M/F; Wistar; Body Weight Changes: decrease + Food Consumption: decrease + Hematology: RBC decrease, Ret increase, , Hgb decrease + Blood Chemistry: gamma…
Oryctolagus sp. = conditions: acute, dermal
Mus musculus [4] = system: Mus musculus
Rattus norvegicus [5] = conditions: for LD50 / NOAEL / LOAEL: oral
Rattus norvegicus [6] = conditions: chronic
[7] = duration: 1 days, injection, intraperitoneal
[8] = duration: 1 days, injection, subcutaneous
[9] = duration: 1.2 days, injection, subcutaneous
[10] = duration: 3 days, injection, intraperitoneal
[11] = duration: 10 days, injection, subcutaneous
[12] = duration: 0 days, injection, intraperitoneal
[13] = duration: 4 days, injection, subcutaneous
[14] = duration: 14 days, injection, subcutaneous
[15] = reproduction developmental, gavage, F, Sprague-Dawley
[16] = short-term, duration: 27 days, gavage, Sprague-Dawley
[17] = subchronic, duration: 13 weeks, oral, gavage, F, B6C3F1
[18] = subchronic, duration: 13 weeks, oral, gavage, M, B6C3F1
[19] = developmental, duration: 10 days, Wistar
[20] = developmental, duration: 128 days, gavage, Wistar
[21] = reproduction developmental, duration: 10 days, F, Wistar
[22] = reproduction developmental, duration: 27 days, gavage, F, Wistar
[23] = reproduction developmental, duration: 27 days, gavage, Wistar, generation: F1
[24] = reproduction developmental, duration: 86 days, gavage, Wistar
[25] = reproduction developmental, duration: 128 days, gavage, F, Wistar
[26] = reproduction developmental, duration: 128 days, gavage, Wistar

SMILES: CCCCCCC(=O)O [Heptanoic acid]
- LD50 (Oryctolagus sp.; albino): ≥ 2000 mg/kg
- NOAEL (Mus musculus [4]; chronic, duration: 80 weeks, dermal, C3H/HeCr): 50 mg
- LC50 (Rattus norvegicus [5]; acute, Inhalation, Sprague-Dawley): > 4.6 µg/mL
- LD50 (Rattus norvegicus [5]; acute): 8370 mg/kg
- NOAEL (Rattus norvegicus [5]; developmental, duration: 9 days, gavage, Sprague-Dawley): 1000 mg/kg-day
- NOAEL (Rattus norvegicus [5]; reproduction developmental, duration: 9 days, gavage, F, Sprague-Dawley): 1000 mg/kg-day
- LOAEL (Rattus norvegicus [5]; [15]): > 1000 mg/kg-day
- NOAEL (Rattus norvegicus [5]; [15]): < 200 mg/kg-day
- NOAEL (Rattus norvegicus [5]; reproduction developmental, gavage, Sprague-Dawley, generation: F1): ≥ 1000 mg/kg-day and ≤ 2000 mg/kg-day
- LOAEL (Rattus norvegicus [5]; [16]): 3500 mg/kg-day
- NOAEL (Rattus norvegicus [5]; [16]): 1750 mg/kg-day

SMILES: S=C([S-])NCCNC(=S)[S-].S=C([S-])NCCNC(=S)[S-].[Mn+2].[Zn+2] [Mancozeb]
- NOEL (Rattus norvegicus [6]; duration: 90 weeks, oral, diet, Thyroid: Goitrogenic effects): 2.9 mg/kg-day

SMILES: CCOP(=O)(/N=C1\SCC(C)S1)OCC (configuration not stated) [Mephosfolan]
- NOEL (Rattus norvegicus [6]; duration: 17 weeks, oral, diet, Blood: Decreased cholinesterase activity + Brain: Decreased cholinesterase activity + Erythrocytes: Decreased cholinesterase activity + …): 0.09 mg/kg-day

SMILES: C=CC(=C)CCC=C(C)C [Myrcene]
- LD50 (Oryctolagus sp.; New Zealand): > 5000 mg/kg
- LD50 (Mus musculus [4]; acute, oral, gavage, Swiss): 5060 mg/kg
- LOAEL (Mus musculus [4]; [17]): 500 mg/kg-day
- NOAEL (Mus musculus [4]; [17]): 250 mg/kg-day
- LOAEL (Mus musculus [4]; [18]): 1000 mg/kg-day
- NOAEL (Mus musculus [4]; [18]): 500 mg/kg-day
- LD50 (Rattus norvegicus [5]; acute, Wistar): > 5000 mg/kg
- LD50 (Rattus norvegicus [5]; acute, gavage, Wistar): > 11400 mg/kg
- LOAEL (Rattus norvegicus [5]; [19]): 1200 mg/kg-day
- NOAEL (Rattus norvegicus [5]; [19]): 500 mg/kg-day
- NOAEL (Rattus norvegicus [5]; developmental, duration: 27 days, gavage, Wistar): 250 mg/kg-day
- LOAEL (Rattus norvegicus [5]; [20]): 500 mg/kg-day
- NOAEL (Rattus norvegicus [5]; [20]): 250 mg/kg-day
- LOAEL (Rattus norvegicus [5]; [21]): 1200 mg/kg-day
- NOAEL (Rattus norvegicus [5]; [21]): 500 mg/kg-day
- LOAEL (Rattus norvegicus [5]; [22]): 1000 mg/kg-day
- NOAEL (Rattus norvegicus [5]; [22]): 500 mg/kg-day
- LOAEL (Rattus norvegicus [5]; [23]): 500 mg/kg-day
- NOAEL (Rattus norvegicus [5]; [23]): 250 mg/kg-day
- LOAEL (Rattus norvegicus [5]; [24]): 500 mg/kg-day
- NOAEL (Rattus norvegicus [5]; [24]): 300 mg/kg-day
- LOAEL (Rattus norvegicus [5]; [25]): 1000 mg/kg-day
- NOAEL (Rattus norvegicus [5]; [25]): 500 mg/kg-day
- LOAEL (Rattus norvegicus [5]; [26]): 500 mg/kg-day
- NOAEL (Rattus norvegicus [5]; [26]): 250 mg/kg-day
- NOAEL (Rattus norvegicus [5]; reproduction developmental, gavage, Wistar): 300 mg/kg-day
- LOAEL (Rattus norvegicus [5]; subchronic, duration: 13 weeks, gavage, Fischer 344): 250 mg/kg-day

SMILES: C=C(C)c1ccccc1 [alpha-Methylstyrene]
- NOEL (Rattus norvegicus [6]; duration: 197 days, inhalation, intermittent, Kidney: Increased weight + Liver: Increased weight): 970 mg/m3

More lines, main results first:

- LEL (Mus musculus [1]; [7]): 0.0005 mg/kg-day
- LEL (Mus musculus [1]; [8]): 0.00045 mg/animal
- LEL (Mus musculus [1]; [9]): 0.00045 mg/animal
- LEL (Mus musculus [1]; [10]): 0.1 mg/kg-day
- LEL (Mus musculus [1]; duration: 3 days, oral): 0.02 mg/kg-day
- LEL (Mus musculus [1]; duration: 4 days, oral): 0.0006 mg/day
- LEL (Mus musculus [1]; duration: 5 days, oral, diet): 0.004 ppm
- LEL (Mus musculus [1]; duration: 6 days, oral, diet): 3.6e-05 mg and 5e-05 mg/day
- LEL (Mus musculus [1]; duration: 9 days, injection, subcutaneous): 0.5 mg/kg-day
- LEL (Mus musculus [1]; duration: 9 days, oral, diet): 0.004 ppm
- LEL (Mus musculus [1]; [11]): 0.0001 mg/day
- LEL (Mus musculus [1]; duration: 11 days, oral, diet): 0.004 ppm
- LEL (Mus musculus [1]; duration: 42 days, injection, subcutaneous): 0.01 mg/kg-day
- LEL (Mus musculus [1]; oral): 0.002 mg/kg-day
- LEL (Rattus norvegicus [2]; [12]): 0.05 mg
- LEL (Rattus norvegicus [2]; duration: 1 days, dermal): 0.5 mg/L
- LEL (Rattus norvegicus [2]; [7]): 0.01 mg/kg-day
- LEL (Rattus norvegicus [2]; [10]): 0.01 mg/kg-day
- LEL (Rattus norvegicus [2]; [13]): 0.01 mg/day
- LEL (Rattus norvegicus [2]; duration: 4 days, oral, diet): 0.005 ppm and 0.01 ppm
- LEL (Rattus norvegicus [2]; duration: 7 days, oral): 0.0009 mg/kg-day
- LEL (Rattus norvegicus [2]; duration: 8 days, injection, intraperitoneal): 0.01 mg/kg-day
SMILES: CC/C(=C(/CC)c1ccc(O)cc1)c1ccc(O)cc1 [Diethylstilbestrol]

- LEL (Mus musculus [1]; duration: 0.17 days, injection, subcutaneous): 0.00027 mg
- LEL (Mus musculus [1]; [10]): 1.25 mg/day
- LEL (Mus musculus [1]; [13]): 2 mg/day
- LEL (Mus musculus [1]; duration: 4 days, oral): 100 mg/kg-day
- LEL (Mus musculus [1]; duration: 4 days, oral, diet): 2.5 mg/day
- LEL (Mus musculus [1]; duration: 6 days, oral, diet): 5.77 mg
- LEL (Mus musculus [1]; duration: 7 days, oral): 200 mg/kg-day
- LEL (Mus musculus [1]; [11]): 0.5 mg/day
- LEL (Mus musculus [1]; [14]): 2 mg/day and 3 mg/day and 5 mg/day
- LEL (Mus musculus [1]; duration: 28 days, injection, subcutaneous): 25 mg/kg-day
- LEL (Rattus norvegicus [2]; [12]): 1.25 mg
- LEL (Rattus norvegicus [2]; [7]): 0.4 mg
- LEL (Rattus norvegicus [2]; duration: 3.5 days, injection, subcutaneous): 1.25 mg/day
- LEL (Rattus norvegicus [2]; duration: 4 days, oral): 100 mg/kg-day
- LEL (Rattus norvegicus [2]; duration: 5 days, oral, diet): 375 mg/kg-day
- LEL (Rattus norvegicus [2]; duration: 7 days, oral): 60 mg/kg-day
- LEL (Rattus norvegicus [2]; [14]): 250 mg/kg-day
- LEL (Rattus norvegicus [2]; duration: 30 days, oral): 125 mg/kg-day
SMILES: O=c1c(-c2ccc(O)cc2)coc2cc(O)cc(O)c12 [Genistein]
- NOEL (Rattus norvegicus [3]): 50 mg/kg-day

- LEL (Mus musculus [1]; duration: 3 days, oral): 33.3 mg/kg-day
SMILES: O=C(Oc1ccccc1)c1ccccc1O [Phenyl salicylate]

- LEL (Mus musculus [1]; duration: 7 days, injection, subcutaneous): 1000 mg/kg-day
- LEL (Mus musculus [1]; duration: 7 days, oral): 1000 mg/kg-day
SMILES: O=C(O)Cc1cc(I)c(Oc2ccc(O)c(I)c2)c(I)c1 [Tiratricol]

- LEL (Mus musculus [1]; [8]): 0.00914 mg/animal
- LEL (Mus musculus [1]; [9]): 0.00914 mg/animal
SMILES: CC[C@H](c1ccc(O)cc1)[C@@H](CC)c1ccc(O)cc1 [meso-Hexestrol]
